{"source": "patent US9657031B2", "about": "“Ant-ligands molecules and biological applications” (MITOLOGICS, priority 2008, dated 2017)", "key": {"[1]": {"test_system": "HT-29 and BxPC3 tumor cell lines", "assay": "Multiparametric analysis of cell death (flow cytometry) on tumor cell lines", "format": "cell-based, human", "conditions": "for effect of caspase / cathepsin B inhibitors on apoptosis induced by the ANT-ligand: z-VAD-fmk, Q-VD-OPH, Z-FA-fmk, Bax/Bak deletion", "method": "FIG. 2: The ANT-ligand is pro-apoptotic on HT-29 and BxPC3 tumor cell lines • (A) Chemical structure of compound 1 • (B) Multiparametric analysis (chromatin condensation, mitochondrial transmembrane potential (L′m) loss, plasma membrane permeabilization, phosphatidylserine exposure) of cellular effects of the ANT-ligand on BxPC3 cell line after 48 h treatment. • (C) Effects of compound 1 on ADP/ATP translocator activity of ANT measured on isolated mitochondria from mice liver or HT-29 tumor cell line (IC50 is given in μM based on ANT assays) and on viability of HT-29 and BxPC3 tumor cell lines (LD50 is given in μM based on MTT assays at 48 h).\n(§1) MTT assay was used to evaluate the viability of a large range of human cell lines in presence of small molecules. Dose-response experiments allow us to determine a lethal-dose 50 (LD50; dose killing 50% of the cellular population) for each compound on a particular cell type after a 48-hour incubation. This viability assay is used as a first screening assay to identify cell-permeant molecules able to induce cell death (cytotoxic) or growth delay (cytostatic) among the 956 molecules of the ANT-ligands library. We have chosen to select molecules having an LD50 below 50 μM on HT-29 (colon adenocarcinoma) or BxPC3 (pancreatic adenocarcinoma) cell lines. These molecules come into the ANT activity screening assays and the efficient ANT-inhibitors (IC50 below 50 μM) are investigated for their mechanisms of cell death induction. Indeed, the characterisation of cell death consists in a multiparametric analysis of treated-cells by flow cytometry (FacsCalibur, Becton Dickinson) where can be measured (1) the loss of mitochondrial trans-membrane potential (L′m; DIOC6 labelling), (2) the plasma membrane permeabilization (Propidium Iodide labeling) and (3) the phosphatidylserines exposure (Annexin-V-fitc labelling)."}, "[2]": {"test_system": "Wi-38 (normal lung fibroblasts)", "assay": "Multiparametric analysis of cellular effects on Wi-38 cell line", "format": "cell-based", "conditions": "Wi-38, compared to HT-29, BxPC3, 48 h and 72 h treatments", "method": "FIG. 4: Compound 1 induces low toxicity on normal fibroblast Wi-38 • A) Expression pattern of ANT isoforms in HT-29, BxPC3 and Wi-38 (normal lung fibroblasts) cell lines after RT-PCR reaction on total RNA • (B) Multiparametric analysis (mitochondrial transmembrane potential, plasma membrane permeabilization, phosphatidylserine exposure) of cellular effects of the ANT-ligand on Wi-38 cell line after 48 h and 72 h treatments.\nas §1, with “We have chosen to select molecules having an LD50 below 50 μM on HT-29 (colon adenocarcinoma) or BxPC3 (pancreatic adenocarcinoma) cell lines. These molecules come into the ANT activity screening assays and the efficient ANT-inhibitors (IC50 below 50 μM) are investigated for their mechanisms of cell death induction.” left out"}, "lymphocytes (PBMC)": {"test_system": "lymphocytes (PBMC)", "assay": "Toxicity on lymphocytes (PBMC)", "format": "cell-based", "conditions": "doses below 400 μM; data not shown"}, "[3]": {"test_system": "S. cerevisiae WT (W303) and JL1-3 (ΔANT 1, 2 & 3) strains", "assay": "Clonogenic assays on S. cerevisiae strains deficient for ANT isoforms", "format": "cell-based", "conditions": "ΔANT 1, 2 & 3 vs WT; viability at 48 h after 2 h incubation", "method": "The importance of ANT isoforms in cytotoxic effects of the selected ANT-ligands has been evaluated using S. cerevisiae strains deficient for ANT isoforms (FIG. 5). Clonogenic assays on these strains are used to ensure that cytotoxic effects of the ANT-ligands are really due to the expression of ANTs in the cells.\nFIG. 5: Target validation of compound 1 using ANT-deficient yeasts • (A) Quantitative estimation of yeasts viability at 48 h after 2 h incubation with compound 1 • (B) Illustration of WT (W303) and JL1-3 (LANT1, 2 and 3) yeast strains growth on plates at 48 h after 2 h incubation with compound 1."}}, "data": [{"smiles": "O=C(O)CCCCn1c(SCc2ccccc2Cl)nc2ccsc2c1=O", "note": "[Compound 1]", "values": [{"measurement": "apoptosis hallmarks (mitochondrial potential loss, phosphatidylserine exposure, plasma membrane permeabilization, chromatin condensation)", "setting": "[1]; multiparametric analysis", "result": "induces classical hallmarks of apoptosis"}, {"measurement": "mitochondrial trans-membrane potential", "setting": "[1]; tumor cells", "result": "induces dissipation of the mitochondrial trans-membrane potential"}, {"measurement": "effect of caspase / cathepsin B inhibitors on apoptosis induced by the ANT-ligand", "setting": "[1]", "result": "inhibited by pan-caspase inhibitors (z-VAD-fmk, Q-VD-OPH) but not by the cathepsin B inhibitor (Z-FA-fmk)"}, {"measurement": "effect of caspase / cathepsin B inhibitors on apoptosis induced by the ANT-ligand", "setting": "[1]; listed as compound 1", "result": "abolished by caspase inhibitors"}, {"measurement": "toxicity on normal lung fibroblasts", "setting": "[2]", "result": "low toxicity"}, {"measurement": "toxicity on normal lung fibroblasts", "setting": "[2]; listed as compound 1", "result": "minor compared to tumor cells"}, {"measurement": "toxicity on lymphocytes (PBMC)", "setting": "lymphocytes (PBMC)", "result": "no sign of toxicity"}, {"measurement": "resistance of ANT-deficient yeast strain versus wild-type", "setting": "[3]", "result": "more resistant to the compound 1 than the wild-type (WT) control strain"}]}]}
